Test results from ChEMBL document CHEMBL3991601, “The target landscape of clinical kinase drugs” (Science, 2017).
Activity calls are given as the source filed them.

Tests used:
[1] = biological target: Cyclin-dependent kinase 4 (Homo sapiens, UniProt P11802)
[2] = biological target: Casein kinase I isoform alpha (Homo sapiens, UniProt P48729)
Deoxycytidine kinase = Deoxycytidine kinase (Homo sapiens, UniProt P27707)
[3] = biological target: Serine/threonine-protein kinase/endoribonuclease IRE2 (Homo sapiens, UniProt Q76MJ5)
[4] = biological target: T1, Mitogen-activated protein kinase kinase kinase 6 (Homo sapiens, UniProt O95382)
T1 sequence (O95382 whole entry): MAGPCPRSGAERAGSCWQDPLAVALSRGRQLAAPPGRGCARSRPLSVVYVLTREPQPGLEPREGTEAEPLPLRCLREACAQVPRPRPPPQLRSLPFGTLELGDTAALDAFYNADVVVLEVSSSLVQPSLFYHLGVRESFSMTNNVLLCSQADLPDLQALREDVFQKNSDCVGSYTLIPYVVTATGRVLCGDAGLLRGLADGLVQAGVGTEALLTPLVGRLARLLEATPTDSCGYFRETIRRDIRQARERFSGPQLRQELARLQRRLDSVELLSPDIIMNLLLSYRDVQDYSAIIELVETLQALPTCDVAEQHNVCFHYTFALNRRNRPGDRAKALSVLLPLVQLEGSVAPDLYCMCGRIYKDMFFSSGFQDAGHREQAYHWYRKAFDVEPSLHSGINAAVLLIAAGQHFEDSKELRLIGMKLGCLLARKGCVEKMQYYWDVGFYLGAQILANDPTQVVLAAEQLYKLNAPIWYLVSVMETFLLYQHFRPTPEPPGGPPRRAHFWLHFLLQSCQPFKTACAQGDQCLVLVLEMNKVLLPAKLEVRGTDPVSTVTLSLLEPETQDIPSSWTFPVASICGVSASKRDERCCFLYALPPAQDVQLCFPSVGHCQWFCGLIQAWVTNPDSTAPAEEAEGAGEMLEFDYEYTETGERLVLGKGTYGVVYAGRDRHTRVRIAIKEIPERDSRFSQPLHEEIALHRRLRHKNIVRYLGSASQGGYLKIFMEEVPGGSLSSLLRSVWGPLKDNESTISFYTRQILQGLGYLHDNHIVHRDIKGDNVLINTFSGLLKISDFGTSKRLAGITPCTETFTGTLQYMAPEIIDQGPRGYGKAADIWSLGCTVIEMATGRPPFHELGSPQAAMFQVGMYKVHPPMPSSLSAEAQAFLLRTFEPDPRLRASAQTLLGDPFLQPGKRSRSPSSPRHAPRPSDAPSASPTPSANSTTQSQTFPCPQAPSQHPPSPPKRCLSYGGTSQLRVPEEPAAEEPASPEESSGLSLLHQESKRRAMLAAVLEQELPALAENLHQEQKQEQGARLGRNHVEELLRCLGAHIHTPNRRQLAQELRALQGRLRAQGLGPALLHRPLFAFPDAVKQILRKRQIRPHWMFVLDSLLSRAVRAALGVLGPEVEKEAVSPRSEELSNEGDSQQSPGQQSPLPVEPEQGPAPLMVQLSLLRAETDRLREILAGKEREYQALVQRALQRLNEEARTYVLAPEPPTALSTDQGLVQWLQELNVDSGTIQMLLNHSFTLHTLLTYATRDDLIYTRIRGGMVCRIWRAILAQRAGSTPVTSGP

[5] = biological target: Mitogen-activated protein kinase kinase kinase kinase 4 (Homo sapiens, UniProt O95819)
[6] = biological target: T2, NUAK family SNF1-like kinase 2 (Homo sapiens, UniProt Q9H093)
T2 sequence (Q9H093 whole entry): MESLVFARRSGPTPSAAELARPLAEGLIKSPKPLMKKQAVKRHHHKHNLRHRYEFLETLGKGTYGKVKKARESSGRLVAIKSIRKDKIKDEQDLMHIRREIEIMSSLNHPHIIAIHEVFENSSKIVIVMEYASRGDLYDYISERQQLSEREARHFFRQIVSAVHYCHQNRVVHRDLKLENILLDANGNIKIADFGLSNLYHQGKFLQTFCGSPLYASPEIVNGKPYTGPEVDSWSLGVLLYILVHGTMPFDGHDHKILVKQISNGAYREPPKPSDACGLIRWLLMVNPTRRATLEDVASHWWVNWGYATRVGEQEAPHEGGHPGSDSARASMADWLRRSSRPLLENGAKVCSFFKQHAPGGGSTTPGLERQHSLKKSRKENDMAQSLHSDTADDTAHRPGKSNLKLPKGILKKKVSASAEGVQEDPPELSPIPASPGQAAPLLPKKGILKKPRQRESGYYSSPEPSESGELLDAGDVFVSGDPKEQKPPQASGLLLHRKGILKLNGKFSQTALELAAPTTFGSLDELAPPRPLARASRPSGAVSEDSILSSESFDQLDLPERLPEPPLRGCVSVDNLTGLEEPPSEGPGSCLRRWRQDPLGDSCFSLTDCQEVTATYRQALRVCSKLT

[7] = biological target: T3, MAP/microtubule affinity-regulating kinase 4 (Homo sapiens, UniProt Q96L34)
T3 sequence (Q96L34 whole entry): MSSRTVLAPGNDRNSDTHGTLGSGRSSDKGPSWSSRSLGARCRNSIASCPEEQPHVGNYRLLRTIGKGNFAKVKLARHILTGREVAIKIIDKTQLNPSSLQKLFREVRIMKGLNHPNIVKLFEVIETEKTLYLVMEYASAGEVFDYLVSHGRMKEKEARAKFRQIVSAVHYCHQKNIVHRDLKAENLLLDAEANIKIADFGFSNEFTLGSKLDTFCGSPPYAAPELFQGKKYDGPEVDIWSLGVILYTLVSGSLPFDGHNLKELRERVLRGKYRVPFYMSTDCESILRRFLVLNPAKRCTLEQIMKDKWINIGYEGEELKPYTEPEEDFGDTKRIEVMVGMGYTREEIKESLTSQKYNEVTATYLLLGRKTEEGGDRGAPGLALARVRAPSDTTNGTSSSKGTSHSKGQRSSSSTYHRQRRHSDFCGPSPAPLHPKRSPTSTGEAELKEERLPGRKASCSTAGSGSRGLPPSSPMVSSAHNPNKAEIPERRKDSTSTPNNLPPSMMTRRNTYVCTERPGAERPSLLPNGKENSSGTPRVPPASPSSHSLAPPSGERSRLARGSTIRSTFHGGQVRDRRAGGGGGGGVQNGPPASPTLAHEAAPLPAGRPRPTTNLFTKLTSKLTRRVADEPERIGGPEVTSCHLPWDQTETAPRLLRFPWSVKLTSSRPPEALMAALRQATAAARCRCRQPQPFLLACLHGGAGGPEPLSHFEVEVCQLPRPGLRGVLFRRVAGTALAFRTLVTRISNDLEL
Also: in the data inactive means no Kd found up to 30 µM.

Sequence of Cyclin-dependent kinase 4 (P11802 whole entry, canonical isoform): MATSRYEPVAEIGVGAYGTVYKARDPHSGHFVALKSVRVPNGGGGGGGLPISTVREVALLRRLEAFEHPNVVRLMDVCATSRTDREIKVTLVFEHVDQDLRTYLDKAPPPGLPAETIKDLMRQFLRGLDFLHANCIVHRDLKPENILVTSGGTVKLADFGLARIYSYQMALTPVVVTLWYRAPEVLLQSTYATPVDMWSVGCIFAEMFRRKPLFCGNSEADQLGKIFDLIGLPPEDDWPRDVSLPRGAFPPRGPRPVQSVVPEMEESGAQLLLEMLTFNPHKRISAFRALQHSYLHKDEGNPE
Sequence of Deoxycytidine kinase (P27707 whole entry): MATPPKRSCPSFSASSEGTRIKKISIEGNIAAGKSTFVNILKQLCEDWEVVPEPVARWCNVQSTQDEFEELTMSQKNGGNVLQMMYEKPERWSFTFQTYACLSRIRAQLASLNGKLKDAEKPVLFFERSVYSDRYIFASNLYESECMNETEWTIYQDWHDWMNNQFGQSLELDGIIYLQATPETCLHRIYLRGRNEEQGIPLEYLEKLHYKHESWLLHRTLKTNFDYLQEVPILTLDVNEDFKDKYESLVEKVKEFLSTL
Sequence of Serine/threonine-protein kinase/endoribonuclease IRE2 (Q76MJ5 whole entry): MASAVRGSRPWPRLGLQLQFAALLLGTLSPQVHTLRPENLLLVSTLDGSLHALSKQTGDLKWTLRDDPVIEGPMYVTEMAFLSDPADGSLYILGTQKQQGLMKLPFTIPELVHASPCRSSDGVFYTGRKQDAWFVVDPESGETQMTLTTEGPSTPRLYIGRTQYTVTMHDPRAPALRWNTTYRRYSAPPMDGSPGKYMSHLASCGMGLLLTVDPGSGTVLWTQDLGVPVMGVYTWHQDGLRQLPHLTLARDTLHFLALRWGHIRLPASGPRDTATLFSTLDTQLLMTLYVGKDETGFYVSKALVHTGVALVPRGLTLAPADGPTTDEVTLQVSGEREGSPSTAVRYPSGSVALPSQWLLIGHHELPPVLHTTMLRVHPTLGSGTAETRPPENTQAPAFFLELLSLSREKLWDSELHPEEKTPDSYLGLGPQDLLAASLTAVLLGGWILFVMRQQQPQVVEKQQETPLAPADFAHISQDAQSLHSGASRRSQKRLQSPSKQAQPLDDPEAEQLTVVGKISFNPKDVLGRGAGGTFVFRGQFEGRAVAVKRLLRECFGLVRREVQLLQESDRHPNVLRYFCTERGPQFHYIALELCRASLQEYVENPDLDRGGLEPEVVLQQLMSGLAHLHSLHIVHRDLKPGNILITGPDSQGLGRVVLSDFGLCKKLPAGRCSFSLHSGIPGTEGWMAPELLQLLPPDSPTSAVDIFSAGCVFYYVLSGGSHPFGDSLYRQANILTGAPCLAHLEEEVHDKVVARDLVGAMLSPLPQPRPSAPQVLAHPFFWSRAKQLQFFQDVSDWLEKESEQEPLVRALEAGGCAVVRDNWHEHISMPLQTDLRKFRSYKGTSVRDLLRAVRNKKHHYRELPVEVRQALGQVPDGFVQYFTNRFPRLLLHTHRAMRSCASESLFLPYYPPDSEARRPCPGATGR
Sequence of Mitogen-activated protein kinase kinase kinase kinase 4 (O95819 whole entry): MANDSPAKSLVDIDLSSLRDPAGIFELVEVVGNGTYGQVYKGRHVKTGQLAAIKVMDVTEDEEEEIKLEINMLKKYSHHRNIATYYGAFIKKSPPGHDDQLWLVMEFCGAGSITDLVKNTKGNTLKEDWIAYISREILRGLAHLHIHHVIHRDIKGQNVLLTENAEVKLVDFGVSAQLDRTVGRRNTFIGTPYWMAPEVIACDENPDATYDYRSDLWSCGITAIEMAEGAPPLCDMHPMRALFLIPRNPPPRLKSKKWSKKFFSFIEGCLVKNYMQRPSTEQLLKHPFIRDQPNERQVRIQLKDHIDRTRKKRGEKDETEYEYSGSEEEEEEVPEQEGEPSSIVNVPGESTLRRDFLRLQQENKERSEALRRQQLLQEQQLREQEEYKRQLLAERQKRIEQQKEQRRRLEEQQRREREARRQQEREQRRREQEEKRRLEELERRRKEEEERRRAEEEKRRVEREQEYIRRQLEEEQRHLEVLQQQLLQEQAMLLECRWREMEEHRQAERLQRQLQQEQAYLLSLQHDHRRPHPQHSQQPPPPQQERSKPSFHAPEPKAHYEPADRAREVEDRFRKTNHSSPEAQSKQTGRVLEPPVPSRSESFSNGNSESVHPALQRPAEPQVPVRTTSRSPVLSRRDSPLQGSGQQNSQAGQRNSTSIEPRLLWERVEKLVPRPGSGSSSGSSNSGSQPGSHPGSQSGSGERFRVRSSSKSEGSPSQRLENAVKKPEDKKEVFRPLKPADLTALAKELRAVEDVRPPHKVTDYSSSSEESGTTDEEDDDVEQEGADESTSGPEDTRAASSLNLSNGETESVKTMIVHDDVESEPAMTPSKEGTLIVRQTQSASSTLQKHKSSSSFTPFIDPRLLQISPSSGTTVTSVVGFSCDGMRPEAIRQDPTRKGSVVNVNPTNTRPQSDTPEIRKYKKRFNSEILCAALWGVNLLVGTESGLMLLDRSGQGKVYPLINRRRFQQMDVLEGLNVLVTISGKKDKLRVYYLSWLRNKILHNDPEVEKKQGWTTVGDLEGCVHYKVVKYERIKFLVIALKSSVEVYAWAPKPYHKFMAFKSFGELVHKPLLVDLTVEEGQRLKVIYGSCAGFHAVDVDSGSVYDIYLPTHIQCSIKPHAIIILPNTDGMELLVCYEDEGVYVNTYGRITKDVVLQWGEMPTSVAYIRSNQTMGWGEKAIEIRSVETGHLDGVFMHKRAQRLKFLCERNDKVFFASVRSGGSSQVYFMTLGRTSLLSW
Sequence of Casein kinase I isoform alpha (P48729 whole entry, canonical isoform): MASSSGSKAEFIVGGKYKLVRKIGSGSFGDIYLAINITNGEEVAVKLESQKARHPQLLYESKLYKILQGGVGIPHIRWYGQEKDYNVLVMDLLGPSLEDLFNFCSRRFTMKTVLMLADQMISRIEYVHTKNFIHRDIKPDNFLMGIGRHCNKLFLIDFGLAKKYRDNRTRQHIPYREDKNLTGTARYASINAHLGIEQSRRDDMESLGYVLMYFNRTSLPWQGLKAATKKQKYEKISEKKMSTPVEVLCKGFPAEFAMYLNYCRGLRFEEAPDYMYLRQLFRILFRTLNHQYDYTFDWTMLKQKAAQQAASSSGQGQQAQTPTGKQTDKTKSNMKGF

SMILES	Kd [1]	Kd [2]	Kd (Deoxycytidine kinase)	Kd [3]	Kd [4]	Kd [5]	Kd [6]	Kd [7]
C[C@@H](Oc1cc(C(=O)Nc2ccc(C(=O)N3CCN(C)CC3)cc2)nnc1N)c1c(Cl)ccc(F)c1Cl	> 30 µM (inactive)	> 30 µM (inactive)	> 30 µM (inactive)	> 30 µM (inactive)	> 30 µM (inactive)	> 30 µM (inactive)	> 30 µM (inactive)	–
C[C@H]1CNCCCN1S(=O)(=O)c1cccc2cncc(F)c12	> 30 µM (inactive)	> 30 µM (inactive)	> 30 µM (inactive)	> 30 µM (inactive)	> 30 µM (inactive)	> 30 µM (inactive)	> 30 µM (inactive)	–
CC(=O)c1cnc2ccc(-c3cc(Cl)c(O)c(Cl)c3)nc2c1N[C@H]1CC[C@H](CN(C)C)CC1	> 30 µM (inactive)	0.931 µM (active)	> 30 µM (inactive)	> 30 µM (inactive)	1.91 µM (active)	0.088 µM	> 30 µM (inactive)	–
Cc1nc2cc(-c3nn(C(C)C)c4ncnc(N)c34)ccc2o1	> 30 µM (inactive)	–	6.17 µM	> 30 µM (inactive)	> 30 µM (inactive)	–	> 30 µM (inactive)	> 30 µM (inactive)
COc1cc(Nc2ncc3c(n2)-c2ccc(Cl)cc2C(c2c(F)cccc2OC)=NC3)ccc1C(=O)O [ALISERTIB]	> 30 µM (inactive)	–	> 30 µM (inactive)	> 30 µM (inactive)	> 30 µM (inactive)	–	> 30 µM (inactive)	> 30 µM (inactive)
Cc1nc(NC(=O)N2CCC[C@H]2C(N)=O)sc1-c1ccnc(C(C)(C)C(F)(F)F)c1 [ALPELISIB]	> 30 µM (inactive)	> 30 µM (inactive)	> 30 µM (inactive)	> 30 µM (inactive)	> 30 µM (inactive)	> 30 µM (inactive)	> 30 µM (inactive)	–
O=C(Nc1c[nH]nc1-c1nc2cc(CN3CCOCC3)ccc2[nH]1)NC1CC1 [AT-9283]	1.29 µM (active)	> 30 µM (inactive)	> 30 µM (inactive)	> 30 µM (inactive)	> 30 µM (inactive)	–	> 30 µM (inactive)	–
CNC(=O)c1ccccc1Sc1ccc2c(/C=C/c3ccccn3)n[nH]c2c1 [AXITINIB]	–	–	> 30 µM (inactive)	> 30 µM (inactive)	–	–	–	–
COc1cc([C@@H]2c3cc4c(cc3[C@H](O)[C@H]3COC(=O)[C@@H]23)OCO4)cc(OC)c1OC [AXL-1717]	> 30 µM (inactive)	> 30 µM (inactive)	> 30 µM (inactive)	> 30 µM (inactive)	> 30 µM (inactive)	> 30 µM (inactive)	> 30 µM (inactive)	–
Cn1cc(C2=C(c3cn(C4CCN(Cc5ccccn5)CC4)c4ccccc34)C(=O)NC2=O)c2ccccc21 [ENZASTAURIN]	–	–	> 30 µM (inactive)	> 30 µM (inactive)	–	–	–	–
Cc1cccc(-c2nn3c(c2-c2ccnc4ccc(C(N)=O)cc24)CCC3)n1 [GALUNISERTIB]	> 30 µM (inactive)	–	> 30 µM (inactive)	> 30 µM (inactive)	> 30 µM (inactive)	1.69 µM (active)	> 30 µM (inactive)	–
C[C@@H](Oc1cc(-n2cnc3ccc(CN4CCN(C)CC4)cc32)sc1C(N)=O)c1ccccc1C(F)(F)F [GSK-461364]	–	–	> 30 µM (inactive)	> 30 µM (inactive)	–	–	–	–
CCn1cc(-c2ccnc3[nH]c(-c4cccc(CN(C)C)c4)cc23)c(-c2ccc(NC(=O)N(C)C)cc2)n1 [GSK-1070916]	> 30 µM (inactive)	–	2.16 µM (active)	> 30 µM (inactive)	> 30 µM (inactive)	–	> 30 µM (inactive)	> 30 µM (inactive)
O=C(Nc1cc(C(F)(F)F)cc(C(F)(F)F)c1)c1cc(Cl)ccc1O [IMD-0354]	> 30 µM (inactive)	> 30 µM (inactive)	> 30 µM (inactive)	> 30 µM (inactive)	> 30 µM (inactive)	> 30 µM (inactive)	> 30 µM (inactive)	–
CN(C[C@@H]1COCCO1)S(=O)(=O)Nc1ccc2ccc3ncc(-c4cnn(C)c4)cc3c(=O)c2c1 [MK-2461]	> 30 µM (inactive)	> 30 µM (inactive)	> 30 µM (inactive)	> 30 µM (inactive)	> 30 µM (inactive)	> 30 µM (inactive)	> 30 µM (inactive)	–
Cc1[nH]c(/C=C2\C(=O)Nc3ccccc32)c(C)c1CCC(=O)O [ORANTINIB]	> 30 µM (inactive)	–	> 30 µM (inactive)	> 30 µM (inactive)	> 30 µM (inactive)	–	–	–
CCCCCCCCCCCCCCCCCCOP(=O)([O-])OC1CC[N+](C)(C)CC1 [PERIFOSINE]	> 30 µM (inactive)	> 30 µM (inactive)	> 30 µM (inactive)	> 30 µM (inactive)	> 30 µM (inactive)	> 30 µM (inactive)	> 30 µM (inactive)	–
O=C(NOCCO)c1cc(CN2OCCCC2=O)c(F)c(F)c1Nc1ccc(I)cc1F [RO-4987655]	–	–	> 30 µM (inactive)	> 30 µM (inactive)	–	–	–	–
N#CC[C@H](C1CCCC1)n1cc(-c2ncnc3[nH]ccc23)cn1 [RUXOLITINIB]	–	–	> 30 µM (inactive)	> 30 µM (inactive)	–	–	–	–
Cn1ncc(Cl)c1-c1cc(C(=O)N[C@H](CN)Cc2ccc(F)c(F)c2)oc1Cl [UPROSERTIB]	> 30 µM (inactive)	1.68 µM (active)	> 30 µM (inactive)	> 30 µM (inactive)	> 30 µM (inactive)	> 30 µM (inactive)	> 30 µM (inactive)	–
CN1C/C=C/CCOc2cccc(c2)-c2ccnc(n2)Nc2cccc(c2)C1 [ZOTIRACICLIB]	> 30 µM (inactive)	> 30 µM (inactive)	> 30 µM (inactive)	> 30 µM (inactive)	> 30 µM (inactive)	> 30 µM (inactive)	> 30 µM (inactive)	–
